Data on seven molecules can be found in ChEMBL document CHEMBL1667840, “Chemical and biological explorations of the electrophilic reactivity of the bioactive marine natural product halenaquinone with biomimetic nucleophiles” (Bioorg Med Chem Lett, 2011).

A short description of assay [1]: Inhibition of Saccharomyces cerevisiae FTase after 15 mins by fluorimetric analysis.
A further assay concerns Vero. The experiment in a line: Cytotoxicity against african green monkey Vero cells assessed as inhibition of [3H]hypoxanthine incorporation after 48 hrs. The format is cell-based. The conditions noted are these: Chlorocebus sabaeus.
For assay [2], the target named is Protein farnesyltransferase (Homo sapiens, UniProt P49354+P49356). The experiment in a line: Inhibition of human FTase after 15 mins by fluorimetric analysis. In kind it is protein-complex assay.
For a further assay, the target named is T1, Phospholipase A2 (Apis mellifera, UniProt P00630).
T1 sequence (P00630 whole entry): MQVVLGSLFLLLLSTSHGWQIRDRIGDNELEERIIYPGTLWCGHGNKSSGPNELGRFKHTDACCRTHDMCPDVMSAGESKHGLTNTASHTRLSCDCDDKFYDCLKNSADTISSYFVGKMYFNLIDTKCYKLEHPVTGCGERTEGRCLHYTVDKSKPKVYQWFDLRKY
The experiment in a line: Inhibition of bee venom phospholipase A2 after 5 mins by spectrophotometric analysis.

For assay [3], the system named is Plasmodium falciparum. The experiment in a line: Antiplasmodial activity against chloroquine-sensitive Plasmodium falciparum 3D7 after 48 hrs. The conditions noted are these: 3D7, 48 h. In kind it is functional, organism-based.
In assay [4] the test system is Plasmodium falciparum. Description: Antiplasmodial activity against chloroquine-resistant Plasmodium falciparum FcB1 after 48 hrs. The format is functional, organism-based. The following applies: FcB1/Columbia.

Structures are written as SMILES.

Broadly, the IC50 is the concentration that inhibits the measured activity by half. Consider `C[C@@]12CCC(=O)/C(=C\NCCc3ccccc3)C1=C(O)C(=O)c1cc3c(cc12)C(=O)C=CC3=O`, for which the IC50 in assay [1] is 0.31 µM; with Vero, 4.7 µM; in assay [2], 0.44 µM; on Phospholipase A2, 17.7 µM; in the assay with Plasmodium falciparum [3], 2.1 µM; with Plasmodium falciparum [4] it was 8.8 µM.
`CCCCCN/C=C1\C(=O)CC[C@]2(C)C1=C(O)C(=O)c1cc3c(cc12)C(=O)C=CC3=O`: the IC50 in assay [1] came out at 0.041 µM; in the assay on Vero, 6.3 µM; in assay [2], 0.057 µM; at Phospholipase A2, 23.9 µM; in the assay with Plasmodium falciparum [3], 7.4 µM; in the assay on Plasmodium falciparum [4] it was 9.2 µM.
For `CC(C)(C)OC(=O)NCCN/C=C1\C(=O)CC[C@]2(C)C1=C(O)C(=O)c1cc3c(cc12)C(=O)C=CC3=O`, the IC50 was determined as 7.4 µM in the assay on Vero, 12.8 µM against Phospholipase A2 and 52.8 µM in the assay with Plasmodium falciparum [4].
With `CC(C)=CCC/C(C)=C/CN/C=C1\C(=O)CC[C@]2(C)C1=C(O)C(=O)c1cc3c(cc12)C(=O)C=CC3=O`, the concentration for half-maximal inhibition (IC50) came to 0.017 µM in assay [1]; 8.6 µM in the assay on Vero; 0.031 µM in assay [2]; 34.4 µM against Phospholipase A2; 0.53 µM in the assay on Plasmodium falciparum [3]; 0.62 µM in the assay with Plasmodium falciparum [4].
In the case of `COC(=O)CN/C=C1\C(=O)CC[C@]2(C)C1=C(O)C(=O)c1cc3c(cc12)C(=O)C=CC3=O`, the IC50 in the assay on Vero was 13.4 µM; at Phospholipase A2, 76.8 µM; in the assay with Plasmodium falciparum [3], 16.5 µM; in the assay with Plasmodium falciparum [4], 55.8 µM.
Regarding `C[C@@]12CCC(=O)c3coc(c31)C(=O)c1cc3c(cc12)C(=O)C=CC3=O` [HELENAQUINONE], the IC50 in assay [1] was 1.6 µM; with Vero it was above 60 µM; in the assay with Plasmodium falciparum [3], 30 µM; in the assay on Plasmodium falciparum [4] it was above 30 µM.
As to `CC1=CCCC2(C)C1=C(O)C(=O)c1cc3c(cc12)C(=O)C=CC3=O` (stereo unspecified) [ORHALQUINONE], the half-maximal inhibitory concentration (IC50) was 0.4 µM in assay [1] and above 62 µM with Vero.
